Test results from ChEMBL document CHEMBL1201862, “PubChem BioAssay data set” (2004).
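A five-concentration, 48-hour dose response in 96-well plates underlies each endpoint, interpolated linearly between surrounding concentrations. At the GI50, growth is halved.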 Activity calls are given as the source filed them. Cut-off read from the data, not from the text of the source: active = GI50 up to about 1.1 µM and inactive = higher.

Columns and labels:
Test in all cases: NCI anticancer screen, dose series, 48 h
UO-31 = test system: UO-31
HOP-62 = test system: HOP-62
HOP-92 = test system: HOP-92
CCRF-CEM = test system: CCRF-CEM
HL-60 = test system: HL-60
HT-29 = test system: HT-29
T47D = test system: T47D
SN12C = test system: SN12C
OVCAR-5 = test system: OVCAR-5
SK-MEL-28 = test system: SK-MEL-28
U-251 = test system: U-251
SW-620 = test system: SW-620
PC-3 = test system: PC-3
IGROV-1 = test system: IGROV-1
RPMI-8226 = test system: RPMI-8226
DU-145 = test system: DU-145
Malme-3M = test system: Malme-3M
SF-268 = test system: SF-268
NCI-H460 = test system: NCI-H460
MCF7 = test system: MCF7

Question: Which GI50 (UO-31) does the source give for `CCc1cccc(C(C)C)c1NC1=C([n+]2ccc(C)cc2)C(=O)c2ccccc2C1=O.[O-][Cl+3]([O-])([O-])[O-]` here?
Answer: 1.23 µM (inactive)

Question: What about the GI50 (HOP-62) of the same compound?
Answer: 0.804 µM (active)

Question: What about the GI50 (HOP-92) of the same compound?
Answer: 0.451 µM (active)

Question: What about the GI50 (CCRF-CEM) of the same compound?
Answer: 0.21 µM (active)

Question: What about the GI50 (HL-60) of the same compound?
Answer: 1.18 µM (inactive)

Question: And the GI50 (HT-29)?
Answer: 1.82 µM (inactive)

Question: And the GI50 (T47D)?
Answer: 0.13 µM (active)

Question: What about the GI50 (SN12C) of the same compound?
Answer: 0.475 µM (active)

Question: And the GI50 (OVCAR-5)?
Answer: 5.3 µM (inactive)

Question: And the GI50 (SK-MEL-28)?
Answer: 7.64 µM (inactive)

Question: What about the GI50 (U-251) of the same compound?
Answer: 0.887 µM (active)

Question: And the GI50 (SW-620)?
Answer: 0.861 µM (active)

Question: What about the GI50 (PC-3) of the same compound?
Answer: 1.54 µM (inactive)

Question: And the GI50 (IGROV-1)?
Answer: 0.284 µM (active)

Question: And the GI50 (RPMI-8226)?
Answer: 0.423 µM (active)

Question: And the GI50 (DU-145)?
Answer: 0.667 µM (active)

Question: And the GI50 (Malme-3M)?
Answer: 2.12 µM (inactive)

Question: And the GI50 (SF-268)?
Answer: 0.359 µM (active)

Question: And the GI50 (NCI-H460)?
Answer: 0.564 µM (active)

Question: What about the GI50 (MCF7) of the same compound?
Answer: 0.27 µM (active)

Question: Which GI50 (UO-31) does the source give for `COc1c(C=O)c2c(c(OC)c1OC)-c1ccc(OC)c(=O)cc1[C@@H](NC(C)=O)CC2` here?
Answer: 11.5 µM (inactive)

Question: What about the GI50 (HOP-62) of the same compound?
Answer: 0.36 µM (active)

Question: And the GI50 (HOP-92)?
Answer: 0.0288 µM (active)

Question: And the GI50 (CCRF-CEM)?
Answer: < 0.0128 µM (active)

Question: And the GI50 (HL-60)?
Answer: < 0.01 µM (active)

Question: What about the GI50 (HT-29) of the same compound?
Answer: 0.0255 µM (active)

Question: What about the GI50 (T47D) of the same compound?
Answer: > 100 µM (inactive)

Question: What about the GI50 (SN12C) of the same compound?
Answer: 0.0824 µM (active)

Question: What about the GI50 (OVCAR-5) of the same compound?
Answer: 3.78 µM (inactive)

Question: And the GI50 (SK-MEL-28)?
Answer: 4.08 µM (inactive)

Question: What about the GI50 (U-251) of the same compound?
Answer: 0.0367 µM (active)

Question: What about the GI50 (SW-620) of the same compound?
Answer: 0.0148 µM (active)

Question: What about the GI50 (PC-3) of the same compound?
Answer: 0.0375 µM (active)

Question: What about the GI50 (IGROV-1) of the same compound?
Answer: 0.0461 µM (active)

Question: And the GI50 (RPMI-8226)?
Answer: < 0.01 µM (active)

Question: And the GI50 (DU-145)?
Answer: 0.415 µM (active)

Question: And the GI50 (Malme-3M)?
Answer: 0.164 µM (active)

Question: And the GI50 (SF-268)?
Answer: 0.0444 µM (active)

Question: And the GI50 (NCI-H460)?
Answer: 0.0771 µM (active)

Question: And the GI50 (MCF7)?
Answer: < 0.01 µM (active)

Question: How did the GI50 (UO-31) turn out when `COC(=O)NC(Cc1ccccc1)NC(=O)OC(C)(C)C` (stereo not given) was run?
Answer: > 100 µM (inactive)

Question: And the GI50 (HOP-62)?
Answer: > 100 µM (inactive)

Question: And the GI50 (HOP-92)?
Answer: > 100 µM (inactive)

Question: What about the GI50 (CCRF-CEM) of the same compound?
Answer: > 100 µM (inactive)

Question: And the GI50 (HL-60)?
Answer: > 100 µM (inactive)

Question: What about the GI50 (HT-29) of the same compound?
Answer: > 100 µM (inactive)

Question: What about the GI50 (T47D) of the same compound?
Answer: > 100 µM (inactive)

Question: What about the GI50 (SN12C) of the same compound?
Answer: > 100 µM (inactive)

Question: What about the GI50 (OVCAR-5) of the same compound?
Answer: > 100 µM (inactive)

Question: What about the GI50 (SK-MEL-28) of the same compound?
Answer: > 100 µM (inactive)

Question: What about the GI50 (U-251) of the same compound?
Answer: > 100 µM (inactive)

Question: And the GI50 (SW-620)?
Answer: > 100 µM (inactive)

Question: What about the GI50 (PC-3) of the same compound?
Answer: > 100 µM (inactive)

Question: And the GI50 (IGROV-1)?
Answer: > 100 µM (inactive)

Question: And the GI50 (RPMI-8226)?
Answer: > 100 µM (inactive)

Question: And the GI50 (DU-145)?
Answer: > 100 µM (inactive)

Question: What about the GI50 (Malme-3M) of the same compound?
Answer: > 100 µM (inactive)

Question: What about the GI50 (SF-268) of the same compound?
Answer: > 100 µM (inactive)

Question: What about the GI50 (NCI-H460) of the same compound?
Answer: > 100 µM (inactive)

Question: And the GI50 (MCF7)?
Answer: > 100 µM (inactive)

Question: Which GI50 (UO-31) does the source give for `O=C1N[C@@H](c2c[nH]c3ccc(Br)cc23)C(=O)N[C@H]1c1c[nH]c2ccc(Br)cc12` here?
Answer: 16.3 µM (inactive)

Question: What about the GI50 (HOP-62) of the same compound?
Answer: 12 µM (inactive)

Question: What about the GI50 (HOP-92) of the same compound?
Answer: 3.71 µM (inactive)

Question: And the GI50 (CCRF-CEM)?
Answer: 4.11 µM (inactive)

Question: What about the GI50 (HL-60) of the same compound?
Answer: 6.9 µM (inactive)

Question: What about the GI50 (HT-29) of the same compound?
Answer: 7.5 µM (inactive)

Question: What about the GI50 (T47D) of the same compound?
Answer: 10.8 µM (inactive)

Question: And the GI50 (SN12C)?
Answer: 12.4 µM (inactive)

Question: What about the GI50 (OVCAR-5) of the same compound?
Answer: 13.9 µM (inactive)

Question: And the GI50 (SK-MEL-28)?
Answer: 15.1 µM (inactive)

Question: What about the GI50 (U-251) of the same compound?
Answer: 9.35 µM (inactive)

Question: And the GI50 (SW-620)?
Answer: 10.9 µM (inactive)

Question: What about the GI50 (PC-3) of the same compound?
Answer: 3.6 µM (inactive)

Question: And the GI50 (IGROV-1)?
Answer: 10.9 µM (inactive)

Question: And the GI50 (RPMI-8226)?
Answer: 7.46 µM (inactive)

Question: And the GI50 (DU-145)?
Answer: 13.8 µM (inactive)

Question: What about the GI50 (Malme-3M) of the same compound?
Answer: 14.4 µM (inactive)

Question: What about the GI50 (SF-268) of the same compound?
Answer: 8.15 µM (inactive)

Question: What about the GI50 (NCI-H460) of the same compound?
Answer: 5.73 µM (inactive)

Question: And the GI50 (MCF7)?
Answer: 12.6 µM (inactive)

Question: Which results are given for `CC1(C)CCC[C@@]2(C)C1C(=O)[C@@H]1O[C@]1(C)[C@@H]2CO` (stereo not given in full)?
Answer: GI50 (UO-31): 53.7 µM (inactive); GI50 (HOP-62): 40.2 µM (inactive); GI50 (HOP-92): 27.8 µM (inactive); GI50 (CCRF-CEM): 11.4 µM (inactive); GI50 (HL-60): 17.4 µM (inactive); GI50 (HT-29): 37.9 µM (inactive); GI50 (T47D): 26.7 µM (inactive); GI50 (SN12C): 25.5 µM (inactive); GI50 (OVCAR-5): > 100 µM (inactive); GI50 (SK-MEL-28): 13.7 µM (inactive); GI50 (U-251): 14.8 µM (inactive); GI50 (SW-620): 24.7 µM (inactive); GI50 (PC-3): 35.4 µM (inactive); GI50 (IGROV-1): 45.8 µM (inactive); GI50 (RPMI-8226): 15.2 µM (inactive); GI50 (DU-145): 38.5 µM (inactive); GI50 (Malme-3M): 37.9 µM (inactive); GI50 (SF-268): 26.2 µM (inactive); GI50 (NCI-H460): 13.5 µM (inactive); GI50 (MCF7): > 100 µM (inactive)
